{"source": "ChEMBL document CHEMBL1208700", "about": "“Anibamine, a natural product CCR5 antagonist, as a novel lead for the development of anti-prostate cancer agents” (Bioorg Med Chem Lett, 2010)", "key": {"M12 [1]": {"system": "M12", "experiment": "Antiproliferative activity against human M12 cells after 72 hrs by WST-1 assay", "format": "functional, cell-based"}, "DU-145": {"system": "DU-145", "experiment": "Antiproliferative activity against human DU145 cells after 72 hrs by WST-1 assay", "format": "functional, cell-based"}, "PC-3": {"system": "PC-3", "experiment": "Antiproliferative activity against human PC3 cells after 72 hrs by WST-1 assay", "format": "functional, cell-based"}, "[2]": {"experiment": "Inhibition of human M12 cells invasion at 50 to 500 nM after 16 hrs", "format": "functional"}, "M12 [3]": {"system": "M12", "experiment": "Inhibition of human M12 cells invasion after 16 hrs", "format": "functional, cell-based"}, "[4]": {"experiment": "Inhibition of human M12 cells adhesion at 10 to 100 nM after 24 hrs", "format": "functional"}, "M12 [5]": {"system": "M12", "experiment": "Reversal of 3D IrECM gel-induced morphological changes in human M12 cells at 500 nM to 1 uM after 5 to 8 days by light microscopic analysis", "format": "functional, cell-based"}, "[6]": {"experiment": "Reduction of vimentin gene expression in human M12 cells at 1 uM after 8 days by confocal immunofluorescence microscopy", "format": "functional, cell-based"}, "M12 [7]": {"system": "M12", "experiment": "Reversal of disorganized alpha6 integrin in human M12 cells at 1 uM after 8 days by confocal immunofluorescence microscopy", "format": "functional, cell-based"}, "M12 [8]": {"system": "M12", "experiment": "Reversal of disorganized beta-1 integrin in human M12 cells at 1 uM after 8 days by confocal immunofluorescence microscopy", "format": "functional, cell-based"}, "[9]": {"experiment": "Toxicity in sheep RBC assessed as hemolysis at 1 uM after 60 mins", "format": "cell-based, Ovis aries", "conditions": "erythrocyte, 1 h"}, "[10]": {"experiment": "Antitumor activity against human M12 cells xenografted in athymic nude mouse assessed as reduction of tumor size at 0.3 mg/kg, iv administered once every fourth day for 16 days", "format": "functional", "parameters": "scale not given: the % may be the effect or the level left"}}, "note": "The source made the active and inactive calls. The calls are words filed in the database; no cut-off is given here.", "data": [{"smiles": "CCCCCCCC/C=C\\c1c(C)c(/C=C\\CCCCCCCC)c2[n+](c1C)CCC2.O=C([O-])C(F)(F)F", "note": "[ANIBAMINE]", "values": [{"measurement": "Activity", "setting": "M12 [1]", "value": "Dose-dependent effect"}, {"measurement": "Activity", "setting": "DU-145", "value": "Dose-dependent effect"}, {"measurement": "Activity", "setting": "PC-3", "value": "Dose-dependent effect"}, {"measurement": "inhibition (INH)", "setting": "[2]", "value": 42, "unit": "%"}, {"measurement": "inhibition", "setting": "M12 [3]", "value": "Dose-dependent effect"}, {"measurement": "inhibition (INH)", "setting": "[4]", "value": 26, "unit": "%"}, {"measurement": "Activity", "setting": "M12 [5]", "value": "Active"}, {"measurement": "Activity", "setting": "[6]", "value": "Active"}, {"measurement": "Activity", "setting": "M12 [7]", "value": "Active"}, {"measurement": "Activity", "setting": "M12 [8]", "value": "Active"}, {"measurement": "Activity", "setting": "[9]", "value": "Non-toxic"}, {"measurement": "Activity", "setting": "[10]", "value": 50, "unit": "%"}]}]}
